Assay results from patent US12679822B2, “Alkenyl pyrimidine compound, preparation method therefor, and application thereof” (Hongyun Biotech Co., Ltd., priority 2020, dated 2026).

Assays:
Type in all cases: cell-based
[1] = molecular target: BaF3 cell lines stably transfected with kinase EGFR L858R/T790M/C797S (Homo sapiens, UniProt P00533, T790M/C797S/L858R, cells depend on it); experiment: Growth inhibition of BaF3 cell line stably transfected with kinase EGFR L858R/T790M/C797S (MTS); details: 48 h, read-out: growth inhibitory activity IC50, L858R/T790M/C797S
Outline: (§1)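 Cells were seeded, then treated with an 8-point, threefold-descending series starting at 10 μM in 0.1% DMSO. After 48 h incubation at 37 °C, MTS reaction solution was added for 1-4 h before reading OD at 490 nm. IC50 values were derived from inhibition rates relative to controls.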

[2] = molecular target: BaF3 cell lines stably transfected with kinase EGFR Del (Homo sapiens, UniProt P00533, cells depend on it, form not given); experiment: Growth inhibition of BaF3 cell line stably transfected with kinase EGFR Del (MTS); details: 48 h, read-out: growth inhibitory activity IC50, Del
Outline: as §1

[3] = molecular target: BaF3 cell lines stably transfected with kinase EGFR L858R/T790M (Homo sapiens, UniProt P00533, T790M/L858R, cells depend on it); experiment: Growth inhibition of BaF3 cell line stably transfected with kinase EGFR L858R/T790M (MTS); details: 48 h, read-out: growth inhibitory activity IC50, L858R/T790M
Outline: as §1

[4] = molecular target: BaF3 cell lines stably transfected with kinase EGFR L858R (Homo sapiens, UniProt P00533, L858R, cells depend on it); experiment: Growth inhibition of BaF3 cell line stably transfected with kinase EGFR L858R (MTS); details: 48 h, read-out: growth inhibitory activity IC50, L858R
Outline: as §1

[5] = molecular target: BaF3 cell lines stably transfected with kinase EGFR Del/T790M/C797S (Homo sapiens, UniProt P00533, T790M/C797S, cells depend on it, form not given); experiment: Growth inhibition of BaF3 cell line stably transfected with kinase EGFR Del/T790M/C797S (MTS); details: 48 h, read-out: growth inhibitory activity IC50, Del/T790M/C797S
Outline: as §1

[6] = molecular target: BaF3 cell lines stably transfected with kinase EGFR Del/T790M (Homo sapiens, UniProt P00533, T790M, cells depend on it, form not given); experiment: Growth inhibition of BaF3 cell line stably transfected with kinase EGFR Del/T790M (MTS); details: 48 h, read-out: growth inhibitory activity IC50, Del/T790M
Outline: as §1

BaF3 cell lines stably transfected with kinase EGFR Del/T790M, sequence (P00533 with tags, fused parts or gaps DEL746-750/T790M, form open): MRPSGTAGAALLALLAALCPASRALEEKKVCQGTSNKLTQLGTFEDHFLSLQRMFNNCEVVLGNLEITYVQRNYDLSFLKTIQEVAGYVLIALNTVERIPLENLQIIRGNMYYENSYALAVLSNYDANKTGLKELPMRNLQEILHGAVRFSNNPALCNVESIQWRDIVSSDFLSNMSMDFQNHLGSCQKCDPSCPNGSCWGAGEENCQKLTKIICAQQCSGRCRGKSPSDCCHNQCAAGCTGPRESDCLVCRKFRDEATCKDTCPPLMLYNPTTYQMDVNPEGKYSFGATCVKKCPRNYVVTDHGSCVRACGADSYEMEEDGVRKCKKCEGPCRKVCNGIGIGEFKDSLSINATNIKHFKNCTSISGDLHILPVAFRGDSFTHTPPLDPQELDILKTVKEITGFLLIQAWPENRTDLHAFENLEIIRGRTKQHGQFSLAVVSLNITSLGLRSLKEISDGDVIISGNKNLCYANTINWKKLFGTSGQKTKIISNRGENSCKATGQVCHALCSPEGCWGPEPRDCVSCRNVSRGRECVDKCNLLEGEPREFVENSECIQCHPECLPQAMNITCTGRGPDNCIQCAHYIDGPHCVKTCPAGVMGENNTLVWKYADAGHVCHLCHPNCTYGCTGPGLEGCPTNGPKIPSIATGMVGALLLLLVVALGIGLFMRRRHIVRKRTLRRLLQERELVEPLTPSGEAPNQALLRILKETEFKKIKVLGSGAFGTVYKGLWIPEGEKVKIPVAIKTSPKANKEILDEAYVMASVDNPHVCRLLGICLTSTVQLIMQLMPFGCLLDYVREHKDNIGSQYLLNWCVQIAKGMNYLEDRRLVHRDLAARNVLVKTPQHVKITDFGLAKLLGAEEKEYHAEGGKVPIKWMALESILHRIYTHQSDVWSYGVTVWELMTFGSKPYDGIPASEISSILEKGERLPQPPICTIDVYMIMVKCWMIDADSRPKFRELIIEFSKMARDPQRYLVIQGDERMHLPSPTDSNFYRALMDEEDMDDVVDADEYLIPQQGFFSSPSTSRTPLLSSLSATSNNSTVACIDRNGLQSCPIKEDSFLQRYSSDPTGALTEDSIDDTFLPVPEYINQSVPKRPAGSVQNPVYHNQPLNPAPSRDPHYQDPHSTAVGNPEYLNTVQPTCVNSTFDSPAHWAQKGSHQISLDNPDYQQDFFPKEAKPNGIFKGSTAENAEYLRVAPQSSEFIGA
BaF3 cell lines stably transfected with kinase EGFR Del/T790M/C797S, sequence (P00533 with tags, fused parts or gaps DEL746-750/T790M/C797S, form open): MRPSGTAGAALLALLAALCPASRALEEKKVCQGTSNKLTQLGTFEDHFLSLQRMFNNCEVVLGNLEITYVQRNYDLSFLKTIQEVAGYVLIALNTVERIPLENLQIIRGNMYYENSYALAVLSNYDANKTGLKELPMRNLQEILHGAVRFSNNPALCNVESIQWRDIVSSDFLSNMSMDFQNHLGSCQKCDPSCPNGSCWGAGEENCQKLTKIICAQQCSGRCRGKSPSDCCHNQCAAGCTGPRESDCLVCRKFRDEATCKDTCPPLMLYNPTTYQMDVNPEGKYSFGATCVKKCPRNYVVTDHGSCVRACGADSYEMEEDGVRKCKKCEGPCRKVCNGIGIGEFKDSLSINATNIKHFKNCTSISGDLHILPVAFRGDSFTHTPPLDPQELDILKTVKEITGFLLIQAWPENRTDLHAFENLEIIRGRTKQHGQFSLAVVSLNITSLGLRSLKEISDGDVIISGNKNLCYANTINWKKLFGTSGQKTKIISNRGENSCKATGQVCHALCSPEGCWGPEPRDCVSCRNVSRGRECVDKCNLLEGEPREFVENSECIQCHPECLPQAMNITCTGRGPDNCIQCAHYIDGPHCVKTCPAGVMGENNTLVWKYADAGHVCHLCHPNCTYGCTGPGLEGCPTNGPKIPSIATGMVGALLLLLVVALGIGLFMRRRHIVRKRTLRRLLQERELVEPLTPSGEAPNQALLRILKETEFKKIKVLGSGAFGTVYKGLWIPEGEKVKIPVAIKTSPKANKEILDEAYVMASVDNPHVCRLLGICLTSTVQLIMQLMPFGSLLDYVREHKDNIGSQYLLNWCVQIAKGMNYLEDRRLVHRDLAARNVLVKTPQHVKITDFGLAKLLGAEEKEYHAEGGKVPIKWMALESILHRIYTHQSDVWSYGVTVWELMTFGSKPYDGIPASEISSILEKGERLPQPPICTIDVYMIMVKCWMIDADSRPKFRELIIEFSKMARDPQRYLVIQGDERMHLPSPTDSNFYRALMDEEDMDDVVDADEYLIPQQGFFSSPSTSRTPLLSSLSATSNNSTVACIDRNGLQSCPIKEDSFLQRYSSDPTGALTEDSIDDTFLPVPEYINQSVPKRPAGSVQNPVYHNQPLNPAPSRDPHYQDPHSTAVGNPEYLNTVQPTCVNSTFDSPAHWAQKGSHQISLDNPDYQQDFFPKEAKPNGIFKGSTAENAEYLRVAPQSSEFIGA
BaF3 cell lines stably transfected with kinase EGFR L858R, sequence (P00533 whole entry L858R): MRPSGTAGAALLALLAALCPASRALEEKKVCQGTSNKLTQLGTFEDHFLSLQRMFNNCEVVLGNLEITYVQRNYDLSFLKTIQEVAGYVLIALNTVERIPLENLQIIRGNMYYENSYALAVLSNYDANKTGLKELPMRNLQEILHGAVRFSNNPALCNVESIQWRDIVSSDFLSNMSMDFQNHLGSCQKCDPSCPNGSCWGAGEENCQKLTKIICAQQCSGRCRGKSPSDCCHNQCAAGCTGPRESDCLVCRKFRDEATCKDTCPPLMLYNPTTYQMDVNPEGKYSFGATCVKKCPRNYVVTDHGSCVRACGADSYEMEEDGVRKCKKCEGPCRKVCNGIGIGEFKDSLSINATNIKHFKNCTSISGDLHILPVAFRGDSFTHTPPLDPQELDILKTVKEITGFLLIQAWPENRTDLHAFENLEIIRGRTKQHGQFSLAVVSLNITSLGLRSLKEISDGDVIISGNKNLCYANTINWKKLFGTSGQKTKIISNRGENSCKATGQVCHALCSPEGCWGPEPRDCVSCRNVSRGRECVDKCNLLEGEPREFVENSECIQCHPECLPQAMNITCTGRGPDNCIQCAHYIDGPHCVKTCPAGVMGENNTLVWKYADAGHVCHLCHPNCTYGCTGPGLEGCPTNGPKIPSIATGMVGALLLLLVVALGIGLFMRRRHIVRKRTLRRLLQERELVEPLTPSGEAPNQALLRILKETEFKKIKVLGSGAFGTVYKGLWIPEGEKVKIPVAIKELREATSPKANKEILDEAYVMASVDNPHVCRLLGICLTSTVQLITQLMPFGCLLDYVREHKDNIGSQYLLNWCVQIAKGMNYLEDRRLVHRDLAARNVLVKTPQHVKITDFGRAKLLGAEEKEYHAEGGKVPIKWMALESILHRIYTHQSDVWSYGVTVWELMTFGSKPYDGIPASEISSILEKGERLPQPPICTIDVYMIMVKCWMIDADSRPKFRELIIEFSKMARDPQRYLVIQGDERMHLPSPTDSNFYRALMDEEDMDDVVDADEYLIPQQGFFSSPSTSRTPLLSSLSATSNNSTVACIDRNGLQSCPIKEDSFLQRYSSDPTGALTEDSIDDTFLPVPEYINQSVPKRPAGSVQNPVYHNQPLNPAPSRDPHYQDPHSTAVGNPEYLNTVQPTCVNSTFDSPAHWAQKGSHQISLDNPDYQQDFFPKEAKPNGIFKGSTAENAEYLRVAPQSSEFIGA
BaF3 cell lines stably transfected with kinase EGFR L858R/T790M/C797S, sequence (P00533 whole entry T790M/C797S/L858R): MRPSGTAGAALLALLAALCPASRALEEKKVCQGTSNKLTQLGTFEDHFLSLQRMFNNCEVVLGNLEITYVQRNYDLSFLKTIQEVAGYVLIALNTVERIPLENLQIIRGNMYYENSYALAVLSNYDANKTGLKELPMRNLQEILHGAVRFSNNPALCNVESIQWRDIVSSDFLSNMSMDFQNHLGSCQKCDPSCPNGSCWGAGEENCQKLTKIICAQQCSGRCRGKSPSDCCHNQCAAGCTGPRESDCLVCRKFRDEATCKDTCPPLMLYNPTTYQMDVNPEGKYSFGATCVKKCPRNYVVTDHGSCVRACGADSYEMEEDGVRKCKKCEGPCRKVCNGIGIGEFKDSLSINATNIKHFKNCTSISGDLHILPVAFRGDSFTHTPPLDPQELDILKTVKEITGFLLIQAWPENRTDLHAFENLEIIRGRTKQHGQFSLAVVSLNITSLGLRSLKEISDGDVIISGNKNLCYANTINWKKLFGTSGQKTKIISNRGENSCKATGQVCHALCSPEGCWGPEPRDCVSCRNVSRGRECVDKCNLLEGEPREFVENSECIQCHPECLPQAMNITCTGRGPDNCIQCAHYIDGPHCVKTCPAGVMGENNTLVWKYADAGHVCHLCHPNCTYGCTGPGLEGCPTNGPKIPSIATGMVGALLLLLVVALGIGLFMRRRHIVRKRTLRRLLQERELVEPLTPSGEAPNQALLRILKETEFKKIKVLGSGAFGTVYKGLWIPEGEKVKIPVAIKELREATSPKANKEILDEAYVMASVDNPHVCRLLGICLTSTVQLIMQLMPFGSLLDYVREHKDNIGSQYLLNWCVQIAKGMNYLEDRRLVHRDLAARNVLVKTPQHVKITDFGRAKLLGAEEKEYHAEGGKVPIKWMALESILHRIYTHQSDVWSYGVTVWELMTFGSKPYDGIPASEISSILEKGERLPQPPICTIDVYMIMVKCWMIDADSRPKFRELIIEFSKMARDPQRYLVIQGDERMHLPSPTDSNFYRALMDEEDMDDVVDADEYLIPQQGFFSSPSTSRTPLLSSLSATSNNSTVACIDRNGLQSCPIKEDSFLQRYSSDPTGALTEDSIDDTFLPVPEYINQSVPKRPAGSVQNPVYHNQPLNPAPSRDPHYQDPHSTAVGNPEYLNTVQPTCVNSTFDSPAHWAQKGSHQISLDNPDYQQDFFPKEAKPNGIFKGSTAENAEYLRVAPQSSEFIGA

| GI50 [1] [nM] | GI50 [2] [nM] | GI50 [3] [nM] | GI50 [4] [nM] | GI50 [5] [nM] | GI50 [6] [nM] | SMILES |
| --- | --- | --- | --- | --- | --- | --- |
| 50 to 500 | 50 to 500 | ≤ 50 | 50 to 500 | 50 to 500 | 50 to 500 | C=Cc1cnc(Nc2ccc(N3CCC(N4CCN(C)CC4)CC3)c(F)c2F)nc1Nc1ccc2nccnc2c1S(=O)(=O)NC [IV-10] |
| 50 to 500 | 50 to 500 | ≤ 50 | 50 to 500 | 50 to 500 | 50 to 500 | C=Cc1cnc(Nc2cc(F)c(N3CCC(N4CCN(C)CC4)CC3)c(F)c2)nc1Nc1ccc2nccnc2c1S(=O)(=O)NC [IV-11] |
| 50 to 500 | 50 to 500 | 50 to 500 | 50 to 500 | 50 to 500 | 50 to 500 | C=Cc1cnc(Nc2cc(CC)c(N3CCC(N(C)C)CC3)cc2OC)nc1Nc1ccc2nccnc2c1S(=O)(=O)NC [IV-13] |
| 50 to 500 | 50 to 500 | 50 to 500 | 50 to 500 | 50 to 500 | 50 to 500 | C=Cc1cnc(Nc2cc(CC)c(N3CCC(N(C)C)C3)cc2OC)nc1Nc1ccc2nccnc2c1S(=O)(=O)NC (stereo not drawn) [IV-14] |
| 50 to 500 | 50 to 500 | 50 to 500 | 50 to 500 | 50 to 500 | 50 to 500 | C=Cc1cnc(Nc2cc(CC)c(N3CCN(C)CC3)cc2OC)nc1Nc1ccc2nccnc2c1S(=O)(=O)NC [IV-15] |
| 500 to 2500 | 500 to 2500 | 50 to 500 | 50 to 500 | 500 to 2500 | 50 to 500 | C=Cc1cnc(Nc2cc(C)c(N3CCC(N4CCN(C)CC4)CC3)cc2OC)nc1Nc1ccc2nccnc2c1S(=O)(=O)NC(C)C [IV-17] |
| 500 to 2500 | 50 to 500 | 50 to 500 | 50 to 500 | 500 to 2500 | 50 to 500 | C=Cc1cnc(Nc2cc(CC)c(N3CCC(N4CCN(C)CC4)CC3)cc2OC)nc1Nc1ccc2nccnc2c1S(=O)(=O)NC(C)C [IV-18] |
